# What was measured:
# [1] = normal DB rabbits, intravenous route, 10-30 minutes post-dose
# Method: Rabbits were dosed with 4-bromo-N-(imidazolidin-2-ylidene)-1H-benzimidazol-5-amine through intravenous route. Spatial sweep visual evoked potential (sVEP) acuity was assessed with PowerDiva software version 1.8. Recordings were made bilaterally in conscious animals.
# [2] = rats, after an oral dose of brimonidine tartrate; cited from earlier work
# [3] = tested on: alpha 2-adrenergic receptor; details: known from prior art; all three alpha-2 receptor subtypes; cited from earlier work
# [4] = tested on: retina damage caused by blue light; details: rats, 1 mg/kg IP one hour before 4 hours blue light exposure (6100-6500 lux); OCT at 7 days post exposure; versus saline
# Method: Drugs were administered via intraperitoneal injection (IP) at a dose of 1 mg/kg one hour before blue light exposure.
# Twenty 4-month old male Sprague-Dawley rats (body weight 470-550 g) were used in this study. The animals were exposed to room light on a 12 hour lighV12 hour dark cycle before the experiment. All animals were dark adapted overnight (16-20 hours) before blue light exposure. Under the intensity of 6100-6500 lux, rats were exposed to blue light for 4 hours. After the blue light, rats were placed in the dark for another 3 days before returning to normal 12 hour light/12 hour dark. Ocular Coherence Tomography (OCT) measurement was performed at 7 days post blue light exposure.
structure (smiles),measurement,setting,value
Brc1c(N=C2NCCN2)ccc2[nH]cnc12 [4-bromo-N-(imidazolidin-2-ylidene)-1H-benzimidazol-5-amine],visual acuity (sVEP acuity),[1],enhanced visual acuity
same,amount found in urine,[2],trace amounts
same,alpha 2-adrenergic receptor agonist activity,[3],"potent alpha 2-adrenergic receptor pan agonist, activating all three alpha-2 receptor subtypes"
"Brc1c(N=C2NCCN2)ccc2nccnc12 [brimonidine, (5-bromo-quinoxalin-6-yl)-imidazolidin-2-ylidene-amine, reference compound]",protection of the retina from damage caused by blue light (retinal thickness measured by OCT),[4],significantly reduced and protected the retina from the damage caused by blue light
